Patent publication US7205295B2, “Benzoxazin-3-ones and derivatives thereof as therapeutic agents” (Warner-Lambert Company LLC, priority 2002, dated 2007)

Assays:
[1] = target: T1, PI3Kγ (p101/p110γ protein) (Homo sapiens, UniProt P48736); experiment: PI3Kγ In Vitro Kinase Assay; type: biochemical; conditions: purified recombinant p101/p110γ with G protein β1/γ2 subunits; 20 μM ATP, 25 μM PIP2; 20 minutes at room temperature
T1 construct: HA; made in house; host or cells: Spodoptera frugiperda (Sf9) cells, baculovirus co-infection
Procedure, shortened: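 Reactions ran 20 min at room temperature, pairing lipid micelles (25 μM PIP2, 300 μM PE, 0.02% Na-cholate, 10 mM MgCl2) with 20 μM ATP including [γ-32P]ATP. The enzyme was recombinant p101/p110γ (2.7 nM) with G protein β1/γ2 (57.7 nM). [32P]PIP3 product was stopped with H3PO4, filtered and scintillation counted.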

T1 sequence (P48736 whole entry, species assumed): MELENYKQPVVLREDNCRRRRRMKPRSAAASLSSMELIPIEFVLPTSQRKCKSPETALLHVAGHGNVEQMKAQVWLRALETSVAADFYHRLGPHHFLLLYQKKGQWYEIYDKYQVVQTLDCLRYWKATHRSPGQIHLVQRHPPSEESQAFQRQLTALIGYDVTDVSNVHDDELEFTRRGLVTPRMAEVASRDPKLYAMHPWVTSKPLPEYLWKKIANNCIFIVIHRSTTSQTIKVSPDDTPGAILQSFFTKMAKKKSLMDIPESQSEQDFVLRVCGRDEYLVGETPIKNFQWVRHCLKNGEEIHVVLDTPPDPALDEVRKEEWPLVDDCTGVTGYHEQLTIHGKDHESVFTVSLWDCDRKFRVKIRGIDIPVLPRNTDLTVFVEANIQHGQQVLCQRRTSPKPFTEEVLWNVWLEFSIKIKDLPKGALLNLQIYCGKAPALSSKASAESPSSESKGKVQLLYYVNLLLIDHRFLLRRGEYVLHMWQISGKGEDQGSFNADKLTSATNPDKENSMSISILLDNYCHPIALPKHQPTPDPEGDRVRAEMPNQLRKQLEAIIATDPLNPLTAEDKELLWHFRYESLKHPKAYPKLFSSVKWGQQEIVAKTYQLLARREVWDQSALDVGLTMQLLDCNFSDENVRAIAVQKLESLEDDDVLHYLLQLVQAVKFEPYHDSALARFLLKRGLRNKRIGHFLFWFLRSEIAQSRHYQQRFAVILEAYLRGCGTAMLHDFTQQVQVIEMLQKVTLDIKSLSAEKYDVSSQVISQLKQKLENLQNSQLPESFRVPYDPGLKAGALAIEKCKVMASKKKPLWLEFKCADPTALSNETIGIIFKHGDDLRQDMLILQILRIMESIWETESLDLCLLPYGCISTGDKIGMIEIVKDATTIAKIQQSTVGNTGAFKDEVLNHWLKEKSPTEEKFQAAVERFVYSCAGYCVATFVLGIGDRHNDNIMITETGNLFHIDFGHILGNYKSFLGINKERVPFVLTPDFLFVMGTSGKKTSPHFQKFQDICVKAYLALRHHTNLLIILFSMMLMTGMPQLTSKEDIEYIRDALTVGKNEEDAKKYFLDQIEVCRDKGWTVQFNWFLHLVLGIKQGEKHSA
T1 sequence (Q8WYR1 whole entry partner, species assumed): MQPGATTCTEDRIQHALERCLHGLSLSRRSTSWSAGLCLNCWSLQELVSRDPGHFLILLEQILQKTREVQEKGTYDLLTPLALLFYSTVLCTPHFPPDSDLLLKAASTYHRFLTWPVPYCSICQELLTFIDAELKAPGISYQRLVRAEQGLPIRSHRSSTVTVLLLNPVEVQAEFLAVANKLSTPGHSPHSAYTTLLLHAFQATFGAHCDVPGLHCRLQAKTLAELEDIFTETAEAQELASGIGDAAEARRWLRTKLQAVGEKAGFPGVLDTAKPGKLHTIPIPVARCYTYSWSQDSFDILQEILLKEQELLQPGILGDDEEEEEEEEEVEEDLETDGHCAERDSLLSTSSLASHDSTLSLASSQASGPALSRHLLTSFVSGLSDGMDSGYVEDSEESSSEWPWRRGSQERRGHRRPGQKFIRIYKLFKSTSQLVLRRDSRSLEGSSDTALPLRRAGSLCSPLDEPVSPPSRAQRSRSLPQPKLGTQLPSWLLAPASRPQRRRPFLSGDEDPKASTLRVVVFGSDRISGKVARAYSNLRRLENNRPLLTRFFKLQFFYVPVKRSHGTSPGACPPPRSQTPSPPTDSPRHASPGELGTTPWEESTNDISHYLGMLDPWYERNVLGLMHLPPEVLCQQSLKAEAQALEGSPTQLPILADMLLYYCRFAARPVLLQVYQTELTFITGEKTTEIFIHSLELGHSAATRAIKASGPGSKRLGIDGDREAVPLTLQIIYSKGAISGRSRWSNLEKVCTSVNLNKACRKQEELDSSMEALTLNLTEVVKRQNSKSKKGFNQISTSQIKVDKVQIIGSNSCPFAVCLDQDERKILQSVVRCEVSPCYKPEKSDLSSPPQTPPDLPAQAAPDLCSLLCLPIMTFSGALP

Compound	melting point	IC50 [1]
CCN(CC)Cc1ccc(CN2C(=O)COc3c(C)cc(C=C4SC(=S)NC4=O)cc32)cc1 [Example 92, 4-(4-Diethylaminomethyl-benzyl)-8-methyl-6-(4-oxo-2-thioxo-thiazolidin-5-ylidenemethyl)-4H-benzo[1,4]oxazin-3-one]	250 to 252 °C	6 nM
CC(C)Oc1cc(CN2C(=O)COc3ccc(C=C4SC(=S)NC4=O)cc32)cc(OC(C)C)c1 [Example 94, 4-(3,5-Diisopropoxy-benzyl)-6-(4-oxo-2-thioxo-thiazolidin-5-ylidenemethyl)-4H-benzo[1,4]oxazin-3-one]	245 to 247 °C	29 nM
O=C1NC(=S)SC1=Cc1ccc2c(c1)N(OCc1ccc(Cl)c(Cl)c1)C(=O)CO2 [Example 88, 4-(3,4-Dichloro-benzyloxy)-6-(4-oxo-2-thioxo-thiazolidin-5-ylidenemethyl)-4H-benzo[1,4]oxazin-3-one]	> 300 °C	3 nM
O=C1NC(=S)SC1=Cc1ccc2c(c1)N(OCc1ccccc1)C(=O)CO2 [Example 90, 4-Benzyloxy-6-(4-oxo-2-thioxo-thiazolidin-5-ylidenemethyl)-4H-benzo[1,4]oxazin-3-one]	> 300 °C	4 nM
CCN(CC)Cc1ccc(CN2C(=O)COc3ccc(C=C4SC(=O)NC4=O)cc32)cc1 [Example 93, 5-[4-(4-Diethylaminomethyl-benzyl)-3-oxo-3,4-dihydro-2H-benzo[1,4]oxazin-6-ylmethylene]-thiazolidine-2,4-dione]	244 to 246 °C	16 nM
Cc1cc(C)cc(CON2C(=O)COc3ccc(C=C4SC(=S)NC4=O)cc32)c1 [Example 89, 4-(3,5-Dimethyl-benzyloxy)-6-(4-oxo-2-thioxo-thiazolidin-5-ylidenemethyl)-4H-benzo[1,4]oxazin-3-one]	> 300 °C	4 nM
Cc1cc(C=C2SC(=S)NC2=O)cc2c1OCC(=O)N2Cc1ccc(CN2CCCCC2)cc1 [Example 91, 8-Methyl-6-(4-oxo-2-thioxo-thiazolidin-5-ylidenemethyl)-4-(4-piperidin-1-ylmethyl-benzyl)-4H-benzo[1,4]oxazin-3-one]	277 to 278 °C	8 nM
Cc1cc(C)c(C)c(CN2C(=O)COc3ccc(C=C4SC(=S)NC4=O)cc32)c1C [Example 96, 6-(4-Oxo-2-thioxo-thiazolidin-5-ylidenemethyl)-4-(2,3,5,6-tetramethyl-benzyl)-4H-1,4-benzoxazin-3-one]	277 to 280 °C	670 nM
CC(C)(C)c1cc(CN2C(=O)COc3ccc(C=C4SC(=O)NC4=O)cc32)cc(C(C)(C)C)n1 [Example 66, 5-[4-(2,6-Di-tert-butyl-pyridin-4-ylmethyl)-3-oxo-3,4-dihydro-2H-1,4-benzoxazin-6-ylmethylene]-thiazolidine-2,4-dione]	–	257 nM
CC(C)(C)c1cc(I)cc(CN2C(=O)COc3ccc(C=C4SC(=S)NC4=O)cc32)c1 [Example 52, 4-(3-tert-Butyl-5-iodo-benzyl)-6-(4-oxo-2-thioxo-thiazolidin-5-ylidenemethyl)-4H-1,4-benzoxazin-3-one]	–	16 nM
4-Ethyl-6-(4-oxo-2-thioxo-thiazolidin-5-ylidenemethyl)-4H-benzo[1,4]oxazin-3-one [Example 139]	–	42 nM
O=C1NC(=S)SC1=Cc1ccc2c(c1)N(Cc1ccccc1)C(=O)CS2 [Example 81, 4-Benzyl-6-(4-oxo-2-thioxo-thiazolidin-5-ylidenemethyl)-4H-1,4-benzothiazin-3-one]	–	29 nM
Cc1cccc(C)c1CN1C(=O)COc2ccc(C=C3SC(=S)NC3=O)cc21 [Example 31, 4-(2,6-Dimethyl-benzyl)-6-(4-oxo-2-thioxo-thiazolidin-5-ylidenemethyl)-4H-1,4-benzoxazin-3-one]	–	83 nM
O=C1NC(=S)SC1=Cc1ccc2c(c1)N(Cc1cccc(-c3ccccc3)c1)C(=O)CO2 [Example 38, 4-Biphenyl-3-ylmethyl-6-(4-oxo-2-thioxo-thiazolidin-5-ylidenemethyl)-4H-1,4-benzoxazin-3-one]	–	6 nM
CCN(CC)Cc1ccc(CN2C(=O)COc3c(F)cc(C=C4SC(=S)NC4=O)cc32)cc1 [Example 72, 4-(4-Diethylaminomethyl-benzyl)-8-fluoro-6-(4-oxo-2-thioxo-thiazolidin-5-ylidenemethyl)-4H-1,4-benzoxazin-3-one]	–	14 nM

Continued, values first:

melting point	IC50 [1]	Compound
> 300 °C	3 nM	Cc1ccc(CN2C(=O)COc3ccc(C=C4SC(=S)NC4=O)cc32)cc1C [Example 97, 4-(3,4-Dimethyl-benzyl)-6-(4-oxo-2-thioxo-thiazolidin-5-ylidenemethyl)-4H-1,4-benzoxazin-3-one]
283 to 286 °C	4 nM	O=C1NC(=S)SC1=Cc1ccc2c(c1)N(CCc1ccccc1C(F)(F)F)C(=O)CO2 [Example 108, 6-(Oxo-2-thioxo-thiazolidin-5-ylidenmethyl)-4-[2-(2-trifluoromethyl-phenyl)-ethyl]-4H-benzo[1,4]oxazin-3-one]
263 to 266 °C	5 nM	O=C1NC(=S)SC1=Cc1ccc2c(c1)N(CCc1ccc(F)c(F)c1)C(=O)CO2 [Example 133, 4-[2-(3,4-Difluoro-phenyl)-ethyl]-6-(4-oxo-2-thioxo-thiazolidin-5-ylidenemethyl)-4H-benzo[1,4]oxazin-3-one]
253 to 255 °C	2 nM	O=C1NC(=S)SC1=Cc1ccc2c(c1)N(CCc1ccc(C(F)(F)F)cc1)C(=O)CO2 [Example 104, 6-(Oxo-2-thioxo-thiazolidin-5-ylidenmethyl)-4-[2-(4-trifluoromethyl-phenyl)-ethyl]-4H-benzo[1,4]oxazin-3-one]
> 300 °C	18 nM	Cc1ccc(C)c(CN2C(=O)COc3ccc(C=C4SC(=S)NC4=O)cc32)c1 [Example 99, 4-(2,5-Dimethyl-benzyl)-6-(4-oxo-2-thioxo-thiazolidin-5-ylidenemethyl)-4H-1,4-benzoxazin-3-one]
267 to 269 °C	10 nM	Cc1ccc(CCN2C(=O)COc3ccc(C=C4SC(=S)NC4=O)cc32)cc1 [Example 138, 6-(4-Oxo-2-thioxo-thiazolidin-5-ylidenemethyl)-4-(2-p-tolyl-ethyl)-4H-1,4-benzoxazin-3-one]
266 to 268 °C	12 nM	CN(C)c1ccc(CCN2C(=O)COc3ccc(C=C4SC(=S)NC4=O)cc32)cc1 [Example 132, 4-[2-(4-Dimethylaniino-phenyl)-ethyl]-6-(4-oxo-2-thioxo-thiazolidin-5-ylidenemethyl)-4H-benzo[1,4]-oxazin-3-one]
267 to 269 °C	3 nM	COc1cc(CCN2C(=O)COc3ccc(C=C4SC(=S)NC4=O)cc32)cc(OC)c1 [Example 130, 4-[2-(3,5-Dimethoxy-phenyl)-ethyl]-6-(4-oxo-2-thioxo-thiazolidin-5-ylidenemethyl)-4H-benzo[1,4]oxazin-3-one]
233 to 236 °C	3 nM	COc1cccc(CCN2C(=O)COc3ccc(C=C4SC(=S)NC4=O)cc32)c1 [Example 137, 4-[2-(3-Methoxy-phenyl)-ethyl]-6-(4-oxo-2-thioxo-thiazolidin-5-ylidenemethyl)-4H-1,4-benzoxazin-3-one]
267 to 269 °C	4 nM	O=C1NC(=S)SC1=Cc1ccc2c(c1)N(CCc1ccc(Cl)c(Cl)c1)C(=O)CO2 [Example 103, 4-[2-(3,4-Dichloro-phenyl)-ethyl]-6-(4-oxo-2-thioxo-thiazolidin-5-ylidenmethyl)-4H-benzo[1,4]oxazin-3-one]
275 to 277 °C	72 nM	O=C1NC(=S)SC1=Cc1cc(Cl)c2c(c1)N(CCc1ccc(C(F)(F)F)cc1)C(=O)CO2 [Example 107, 8-Chloro-6-(oxo-2-thioxo-thiazolidin-5-ylidenmethyl)-4-[2-(4-trifluoromethyl-phenyl)-ethyl]-4H-benzo[1,4]oxazin-3-one]
220 to 224 °C	49 nM	O=C1NC(=S)SC1=Cc1ccc2c(c1)N(CCc1ccc(Oc3ccccc3)cc1)C(=O)CO2 [Example 129, 6-(4-Oxo-2-thioxo-thiazolidin-5-ylidenemethyl)-4-[2-(4-phenoxy-phenyl)-ethyl]-4H-1,4-benzoxazin-3-one]
274 to 276 °C	2 nM	O=C1NC(=S)SC1=Cc1ccc2c(c1)N(CCc1ccc(Br)cc1)C(=O)CO2 [Example 102, 4-[2-(4-Bromo-phenyl)-ethyl]-6-(4-oxo-2-thioxo-thiazolidin-5-ylidenmethyl)-4H-benzo[1,4]oxazin-3-one]
–	55 nM	O=C1NC(=S)SC1=Cc1cc(Cl)c2c(c1)N(CCc1ccc(Cl)c(Cl)c1)C(=O)CO2 [Example 110, 8-Chloro-4-[2-(3,4-dichloro-phenyl)-ethyl]-6-(4-oxo-2-thioxo-thiazolidin-5-ylidenmethyl)-4H-benzo[1,4]oxazin-3-one]
–	7 nM	CC(C)(O)c1cc(CN2C(=O)COc3ccc(C=C4SC(=S)NC4=O)cc32)ccc1Cl [Example 332, 4-[4-Chloro-3-(1-hydroxy-1-methyl-ethyl)-benzyl]-6-(4-oxo-2-thioxo-thiazolidin-5-ylidenemethyl)-4H-1,4-benzoxazin-3-one; compound with ethane-1,2-diamine]
–	29 nM	Cc1ccc(CN2C(=O)COc3ccc(C=C4SC(=S)NC4=O)cc32)cc1 [Example 140, 4-(4-Methyl-benzyl)-6-(4-oxo-2-thioxo-thiazolidin-5-ylidenemethyl)-4H-benzo[1,4]oxazin-3-one]
